According to publication PMC10020548, “Synthesis and structure–activity relationship studies of benzimidazole-thioquinoline derivatives as α-glucosidase inhibitors” (Scientific Reports, 2023):
Where two headings read alike, the source gives them in different places.

What was measured:
α-glucosidase [1] = details: cited from earlier work
[2] = biological target: T1, α-Glucosidase enzyme (EC3.2.1.20, Saccharomyces cerevisiae) (Saccharomyces cerevisiae, UniProt P53341); assay: biochemical; details: α-glucosidase from S. cerevisiae, substrate p-nitrophenyl glucopyranoside, pH 6.8, 37 °C; mean ± SD
T1 construct: purchased Sigma-Aldrich
T1 sequence (P53341 whole entry): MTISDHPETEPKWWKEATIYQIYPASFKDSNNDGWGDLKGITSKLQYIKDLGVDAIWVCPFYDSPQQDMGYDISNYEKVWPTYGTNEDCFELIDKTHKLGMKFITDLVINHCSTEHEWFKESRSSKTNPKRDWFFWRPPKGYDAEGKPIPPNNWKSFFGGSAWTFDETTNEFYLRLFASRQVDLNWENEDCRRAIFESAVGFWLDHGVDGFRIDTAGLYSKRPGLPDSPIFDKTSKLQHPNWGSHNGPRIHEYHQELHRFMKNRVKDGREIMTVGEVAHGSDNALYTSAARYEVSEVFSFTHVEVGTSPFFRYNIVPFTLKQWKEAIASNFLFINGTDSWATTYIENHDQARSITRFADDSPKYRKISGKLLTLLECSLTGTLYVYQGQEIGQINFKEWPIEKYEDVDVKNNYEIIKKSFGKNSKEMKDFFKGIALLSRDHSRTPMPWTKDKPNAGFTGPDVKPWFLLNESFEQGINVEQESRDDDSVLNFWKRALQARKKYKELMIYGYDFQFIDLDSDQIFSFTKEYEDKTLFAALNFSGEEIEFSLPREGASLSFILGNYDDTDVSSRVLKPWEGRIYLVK
Method: α-Glucosidase enzyme (EC3.2.1.20, Saccharomyces cerevisiae, 20 U/mg) and substrate (p-nitrophenyl glucopyranoside) were purchased from Sigma-Aldrich. 1 mg of α-glucosidase was dissolved in potassium phosphate buffer (50 mM, pH = 6.8) to obtain the initial activity of 1 U ml^–1. Then, 20 µl of this enzyme solution was incubated with 135 µl of potassium phosphate buffer and 20 µl of test compound at various concentrations in DMSO. Therefore, the final concentration of the enzyme was about 0.1 U ml^–1. After 10 min incubation at 37 °C, 25 µl of the substrate at a final concentration of 4 mM was added to the mixture and allowed to incubate at 37 °C for 20 min.
The percentage of inhibition for each entry was calculated by using the following formula: %Inhibition=[(Abscontrol-Abssample)/Abscontrol]×100 IC50 values were obtained from the nonlinear regression curve using the Logit method.

LO2 cells = test system: LO2 cells; design: method as in PMID 34717239; details: cited from earlier work
α-glucosidase [3] = test system: α-glucosidase; design: method as in PMID 34717239; details: cited from earlier work
α-glucosidase [4] = biological target: α-glucosidase (Saccharomyces cerevisiae, UniProt P53341); assay: Enzyme kinetic studies (Lineweaver–Burk plot, secondary plot); type: biochemical
Sequence of α-glucosidase (Saccharomyces cerevisiae, UniProt P53341) (P53341 whole entry): as above
Method: A Lineweaver–Burk plot was generated to identify the type of inhibition and the Michaelis–Menten constant (Km) value was determined from the plot between the reciprocal of the substrate concentration (1/[S]) and reciprocal of enzyme rate (1/V) over various inhibitor concentrations. The experimental inhibitor constant (Ki) value was constructed by secondary plots of the inhibitor concentration [I] versus Km[43],[44].

Row | Compound | IC50 [2] | other results
1 | Brc1ccc(CNc2cccc(-c3nc4ccccc4[nH]3)c2)cn1 [E] |  | IC50 (α-glucosidase [1]; in-house library hit, read-out: IC50): 37.9 ± 1.86 µM
2 | Clc1ccc(CSc2nc3ccccc3cc2-c2nc3ccccc3[nH]2)cc1 [Compound 6g, 3-(1H-benzo[d]imidazol-2-yl)-2-((4-chlorobenzyl)thio)quinoline] | 96.6 ± 0.1 µM | 
3 | Cc1cccc(CSc2nc3ccccc3cc2-c2nc3ccccc3[nH]2)c1C [Compound 6o, 3-(1H-benzo[d]imidazol-2-yl)-2-((2,3-dimethylbenzyl)thio)quinoline] | 126.9 ± 0.5 µM | 
4 | CC(C)(C)c1ccc(C(=O)Oc2cccc(-c3nc4ccccc4[nH]3)c2)cc1 [F] |  | cytotoxicity against LO2 cells (LO2 cells): no cytotoxicity; IC50 (α-glucosidase [1]; 2-phenyl-1H-benzo[d]imidazole derivatives, read-out: IC50): 0.71 ± 0.02 µM; type of inhibition (kinetic study) (α-glucosidase [3]): non-competitive inhibition
5 | Cc1cccc2nc(-c3ccccc3Cl)[nH]c12 [H] |  | IC50 (α-glucosidase [1]; benzimidazole of previous studies, read-out: IC50): 5.3 ± 0.1 µM
6 | Cc1ccccc1CSc1nc2ccccc2cc1-c1nc2ccccc2[nH]1 [Compound 6l, 3-(1H-benzo[d]imidazol-2-yl)-2-((2-methylbenzyl)thio)quinoline] | 195.7 ± 0.6 µM | 
7 | Cc1cc2nc(-c3ccc(C(=O)N/N=C/c4cc(O)c(O)c(O)c4)cc3)[nH]c2cc1C [G] |  | IC50 (α-glucosidase [1]; benzimidazole derivatives (Zawawi and coworkers), read-out: IC50): 8.4 ± 0.76 µM
8 | O=C(N/N=C/c1ccc(O)c(O)c1)c1ccc2ncccc2c1 [Compound C] |  | IC50 (α-glucosidase [1]; quinoline derivatives study, read-out: IC50): 6.2 ± 0.3 µM
9 | Clc1ccccc1CSc1nc2ccccc2cc1-c1nc2ccccc2[nH]1 [Compound 6e, 3-(1H-benzo[d]imidazol-2-yl)-2-((2-chlorobenzyl)thio)quinoline] | 663.7 ± 1.2 µM | 
10 | O=C(O)c1ccc2ccccc2n1 [Compound A, Quinoline-2-carboxylic acid] |  | IC50 (α-glucosidase [1]): 9.1 ± 2.3 µg/mL
11 | Cc1cccc(CSc2nc3ccccc3cc2-c2nc3ccccc3[nH]2)c1 [Compound 6m, 3-(1H-benzo[d]imidazol-2-yl)-2-((3-methylbenzyl)thio)quinoline] | 158 ± 2.4 µM | 
12 | c1ccc(CSc2nc3ccccc3cc2-c2nc3ccccc3[nH]2)cc1 [Compound 6a, 3-(1H-benzo[d]imidazol-2-yl)-2-(benzylthio) quinoline] | 153.7 ± 0.9 µM | 
13 | Fc1cccc(CSc2nc3ccccc3cc2-c2nc3ccccc3[nH]2)c1 [Compound 6c, 3-(1H-benzo[d]imidazol-2-yl)-2-((3-fluorobenzyl)thio)quinoline] | 76.7 ± 0.7 µM | 
14 | Cc1ccc(CSc2nc3ccccc3cc2-c2nc3ccccc3[nH]2)cc1 [Compound 6n, 3-(1H-benzo[d]imidazol-2-yl)-2-((4-methylbenzyl)thio)quinoline] | 116.6 ± 0.5 µM | 
15 | CCSc1nc2ccccc2cc1-c1nc2ccccc2[nH]1 [Compound 6r, 3-(1H-benzo[d]imidazol-2-yl)-2-(ethylthio)quinoline] | 300.7 ± 2 µM | 
16 | Brc1ccccc1CSc1nc2ccccc2cc1-c1nc2ccccc2[nH]1 [Compound 6h, 3-(1H-benzo[d]imidazol-2-yl)-2-((2-bromobenzyl)thio)quinoline] | 133.5 ± 1.3 µM | 
17 | O=[N+]([O-])c1ccc(CSc2nc3ccccc3cc2-c2nc3ccccc3[nH]2)cc1 [Compound 6p, 3-(1H-benzo[d]imidazol-2-yl)-2-((4-nitrobenzyl)thio)quinoline] | 89.2 ± 1.3 µM | 
18 | Brc1cccc(CSc2nc3ccccc3cc2-c2nc3ccccc3[nH]2)c1 [Compound 6i, 3-(1H-benzo[d]imidazol-2-yl)-2-((3-bromobenzyl)thio)quinoline] | 65.5 ± 2 µM | 
19 | Clc1ccc(CSc2nc3ccccc3cc2-c2nc3ccccc3[nH]2)cc1Cl [Compound 6k, 3-(1H-benzo[d]imidazol-2-yl)-2-((3,4-dichlorobenzyl)thio)quinoline] | 99.4 µM | 
20 | O=c1c(C(c2c[nH]c3ccccc23)c2c[nH]c3ccccc23)cc2ccccc2n1Cc1ccccc1 [Compound D] |  | IC50 (α-glucosidase [1]; quinolone-bis(indolyl)methane hybrids study, read-out: IC50): 21.8 ± 1.8 µM
21 | Brc1ccc(CSc2nc3ccccc3cc2-c2nc3ccccc3[nH]2)cc1 [Compound 6j, 3-(1H-benzo[d]imidazol-2-yl)-2-((4-bromobenzyl)thio)quinoline] | 28 ± 0.6 µM | Ki (α-glucosidase [4]; secondary plot of Km versus inhibitor concentration, read-out: inhibition constant, Ki): 28.1 µM; inhibition pattern (Lineweaver–Burk plot) (α-glucosidase [4]; substrate p-nitrophenyl α-D-glucopyranoside 1–16 mM, inhibitor 0, 7, 14, 28 µM): competitive inhibition
22 | Clc1cccc(CSc2nc3ccccc3cc2-c2nc3ccccc3[nH]2)c1 [Compound 6f, 3-(1H-benzo[d]imidazol-2-yl)-2-((3-chlorobenzyl)thio)quinoline] | 48.2 ± 0.4 µM | 
23 | Fc1ccccc1CSc1nc2ccccc2cc1-c1nc2ccccc2[nH]1 [Compound 6b, 3-(1H-benzo[d]imidazol-2-yl)-2-((2-fluorobenzyl)thio)quinoline] | 188 ± 2.4 µM | 
24 | COc1ccc(CSc2nc3ccccc3cc2-c2nc3ccccc3[nH]2)cc1 [Compound 6q, 3-(1H-benzo[d]imidazol-2-yl)-2-((4-methoxybenzyl)thio)quinoline] | 67.3 ± 0.8 µM | 
25 | Fc1ccc(CSc2nc3ccccc3cc2-c2nc3ccccc3[nH]2)cc1 [Compound 6d, 3-(1H-benzo[d]imidazol-2-yl)-2-((4-fluorobenzyl)thio)quinoline] | 80.9 ± 1.1 µM | 
26 | O=C(N/N=C/c1ccc(O)c(O)c1)c1ccc(-c2nnc(-c3ccc4ncccc4c3)o2)cc1 [Compound B] |  | IC50 (α-glucosidase [1]; oxadiazole-quinoline study, read-out: IC50): 2.6 ± 0.01 µM
